# In ChEMBL document CHEMBL4402583, “Rational Substitution of ε-Lysine for α-Lysine Enhances the Cell and Membrane Selectivity of Pore-Forming Melittin” (J Med Chem, 2020):
# Activity calls are given as the source filed them. The rule behind the calls is not given here.
# What was measured:
# Pseudomonas aeruginosa = test: Antibacterial activity against Pseudomonas aeruginosa assessed as reduction in bacterial growth incubated for 24 hrs by broth microdilution method; type: functional
# Candida albicans = test: Antifungal activity against Candida albicans assessed as reduction in fungal growth incubated for 24 hrs by broth microdilution method; type: functional
# Staphylococcus aureus [1] = test: Antibacterial activity against methicillin-sensitive Staphylococcus aureus assessed as reduction in bacterial growth incubated for 24 hrs by broth microdilution method; type: functional
# Staphylococcus aureus [2] = test: Antibacterial activity against methicillin-resistance Staphylococcus aureus assessed as reduction in bacterial growth incubated for 24 hrs by broth microdilution method; type: functional
# Enterococcus = test: Antibacterial activity against vancomycin-resistant Enterococcus assessed as reduction in bacterial growth incubated for 24 hrs by broth microdilution method; type: functional
# Acinetobacter baumannii [3] = test: Antibacterial activity against multidrug-resistant Acinetobacter baumannii assessed as reduction in bacterial growth incubated for 24 hrs by broth microdilution method; type: functional
# Enterobacteriaceae = test: Antibacterial activity against Carbapenem-Resistant Enterobacteriaceae assessed as reduction in bacterial growth incubated for 24 hrs by broth microdilution method; type: functional
# [4] = Cytotoxicity against HDF cells assessed as cell viability at 500 ug/ml incubated for 24 hrs by MTS assay relative to control; type: cell-based; conditions: human, HDF cells (NHDF, human dermal fibroblasts); read-out: Activity
# NHDF = test: Cytotoxicity against HDF cells assessed as truncation and reduction in cytoskeleton at 500 ug/ml incubated for 24 hrs by Alexa Fluor […] phalloidin-FITC/Hoescht dye staining based fluorescence microscopic analysis; type: cell-based; conditions: human
# HaCaT = test: Cytotoxicity against human HaCaT cells assessed as truncation and reduction in cytoskeleton at 500 ug/ml incubated for 24 hrs by Alexa Fluor […] phalloidin-FITC/Hoescht dye staining based fluorescence microscopic analysis; type: cell-based
# [5] = Hemolytic activity against human erythrocytes assessed as hemoglobin release incubated for 1 hr; type: ADME, cell-based, Erythrocyte; conditions: read-out: HD50
# Enterococcus faecalis [6] = test: Antibacterial activity against vancomycin-resistant Enterococcus faecalis ATCC 29212 assessed as log10 reduction in bacterial viability at 2 to 4 times MIC incubated for 30 mins in MHB medium followed by reincubation on MH agar plate for 24 to 48 hrs by time kill kinetics analysis; type: functional
# Enterococcus faecalis [7] = test: Antibacterial activity against vancomycin-resistant Enterococcus faecalis 1010 assessed as log10 reduction in bacterial viability at 2 to 4 times MIC incubated for 30 mins in MHB medium followed by reincubation on MH agar plate for 24 to 48 hrs by time kill kinetics analysis; type: functional
# Enterococcus faecalis [8] = test: Antibacterial activity against vancomycin-resistant Enterococcus faecalis 1002 assessed as log10 reduction in bacterial viability at 2 to 4 times MIC incubated for 30 mins in MHB medium followed by reincubation on MH agar plate for 24 to 48 hrs by time kill kinetics analysis; type: functional
# Acinetobacter baumannii [9] = test: Antibacterial activity against Acinetobacter baumannii 1001 assessed as reduction in bacterial viability at 2 or 4 times MIC incubated up to 24 hrs in MHB medium followed by reincubation on MH agar plate for 24 to 48 hrs by time kill kinetics assay; type: functional, organism-based
# Escherichia coli [10] = test: Antibacterial activity against Escherichia coli 1004 assessed as reduction in bacterial viability at 2 or 4 times MIC incubated up to 24 hrs in MHB medium followed by reincubation on MH agar plate for 24 to 48 hrs by time kill kinetics assay; type: functional, organism-based
# Klebsiella pneumoniae = test: Antibacterial activity against Klebsiella pneumoniae 1008 assessed as reduction in bacterial viability at 2 or 4 times MIC incubated up to 24 hrs in MHB medium followed by reincubation on MH agar plate for 24 to 48 hrs by time kill kinetics assay; type: functional, organism-based
# Enterococcus faecalis [11] = test: Induction of pore formation in intact vancomycin-resistant Enterococcus faecalis ATCC 29212 cell membrane assessed as SG uptake at 2 times MIC by SG dye based fluorescence based assay; type: organism-based
# Enterococcus faecalis [12] = test: Induction of pore formation in intact vancomycin-resistant Enterococcus faecalis 1002 cell membrane assessed as SG uptake at 2 times MIC by SG dye based fluorescence based assay; type: organism-based
# Acinetobacter baumannii [13] = test: Induction of pore formation in intact Acinetobacter baumannii 1001 cell membrane assessed as SG uptake at 2 times MIC by SG dye based fluorescence based assay; type: organism-based
# Escherichia coli [14] = test: Induction of pore formation in intact Escherichia coli 1004 cell membrane assessed as SG uptake at 2 times MIC by SG dye based fluorescence based assay; type: organism-based
# Acinetobacter baumannii [15] = test: Antibacterial activity against Acinetobacter baumannii ATCC 19606 assessed as reduction in bacterial growth at sublethal concentrations measured after 20 serial passages by broth microdilution method; type: functional, organism-based; conditions: ATCC 19606 = CIP 70.34 = JCM 6841
# Enterococcus faecalis [16] = test: Resistance index, ratio of MIC for vancomycin-resistant Enterococcus faecalis 1010 measured after 18 serial passages by broth microdilution method to MIC for vancomycin-resistant Enterococcus faecalis 1010 incubated for 24 hrs by broth microdilution method; type: functional
# T-cell [17] = test: Immunogenicity in human PBL T cells assessed as increase in IL-2 production at 62.5 or 125 ug/ml incubated for 24 hrs by ELISA; type: ADME, cell-based
# T-cell [18] = test: Immunogenicity in human PBL T cells assessed as increase in IL-4 production at 62.5 or 125 ug/ml incubated for 24 hrs by ELISA; type: ADME, cell-based
# T-cell [19] = test: Immunogenicity in human PBL T cells assessed as increase in IL-5 production at 62.5 or 125 ug/ml incubated for 24 hrs by ELISA; type: ADME, cell-based
# T-cell [20] = test: Immunogenicity in human PBL T cells assessed as increase in IFN-gamma production at 62.5 or 125 ug/ml incubated for 24 hrs by ELISA; type: ADME, cell-based
# [21] = Stability of the compound in rabbit tear fluid measured after 2 hrs by UPLC-MS analysis; type: ADME, Oryctolagus cuniculus
# [22] = Stability of the compound in rabbit tear fluids assessed as parent compound remaining measured after 4 hrs by UPLC-MS analysis; type: ADME, Oryctolagus cuniculus; conditions: tear fluid, read-out: Stability
# Oryctolagus cuniculus [23] = test: Induction of reepithelialization in injured New Zealand white rabbit cornea assessed as wound healing at 0.3% administered topically for qid measured at day 1 post-injury by fluorescein sodium staining based microscopic imaging analysis (reference value: 89.9 +/- 2.9 %); type: organism-based; conditions: in vivo, topical_or_ocular
# Oryctolagus cuniculus [24] = test: Induction of reepithelialization in injured New Zealand white rabbit cornea assessed as wound healing administered topically for qid measured at day 2 post-injury by fluorescein sodium staining based microscopic imaging analysis (reference value: 76.6 +/- 4.5 %); type: organism-based; conditions: in vivo, topical_or_ocular
# Oryctolagus cuniculus [25] = test: Induction of reepithelialization in injured New Zealand white rabbit cornea assessed as wound healing administered topically for qid measured at day 3 post-injury by fluorescein sodium staining based microscopic imaging analysis (reference value: 63.9 +/- 5.3 %); type: organism-based; conditions: in vivo, topical_or_ocular
# Oryctolagus cuniculus [26] = test: Induction of reepithelialization in injured New Zealand white rabbit cornea assessed as wound healing administered topically for qid measured at day 4 post-injury by fluorescein sodium staining based microscopic imaging analysis (reference value: 48.4 +/- 7.6 %); type: organism-based; conditions: in vivo, topical_or_ocular
# Oryctolagus cuniculus [27] = test: Induction of reepithelialization in injured New Zealand white rabbit cornea assessed as wound healing administered topically for qid measured at day 5 post-injury by fluorescein sodium staining based microscopic imaging analysis (reference value: 39.8 +/- 6.2 %); type: organism-based; conditions: in vivo, topical_or_ocular
# Oryctolagus cuniculus [28] = test: Induction of reepithelialization in injured New Zealand white rabbit cornea assessed as wound healing administered topically for qid measured at day 6 post-injury by fluorescein sodium staining based microscopic imaging analysis (reference value: 24.1 +/- 8.5 %); type: organism-based; conditions: in vivo, topical_or_ocular
# Oryctolagus cuniculus [29] = test: Induction of reepithelialization in injured New Zealand white rabbit cornea assessed as wound healing administered topically for qid measured at day 7 post-injury by fluorescein sodium staining based microscopic imaging analysis (reference value: 8.6 %); type: organism-based; conditions: in vivo, topical_or_ocular
# Oryctolagus cuniculus [30] = test: Induction of reepithelialization in injured New Zealand white rabbit cornea assessed as wound healing administered topically for qid measured at day 8 post-injury by fluorescein sodium staining based microscopic imaging analysis (reference value: 3.8 %); type: organism-based; conditions: in vivo, topical_or_ocular
smiles,measurement,setting,value
CC[C@H](C)[C@H](NC(=O)CN)C(=O)NCC(=O)N[C@@H](C)C(=O)N[C@H](C(=O)N[C@@H](CC(C)C)C(=O)NCCC[C@@H](CN)C(=O)N[C@H](C(=O)N[C@@H](CC(C)C)C(=O)N[C@H](C(=O)N[C@H](C(=O)NCC(=O)N[C@@H](CC(C)C)C(=O)N1CCC[C@H]1C(=O)N[C@@H](C)C(=O)N[C@@H](CC(C)C)C(=O)N[C@H](C(=O)N[C@@H](CO)C(=O)N[C@@H](Cc1c[nH]c2ccccc12)C(=O)N[C@H](C(=O)N[C@@H](CCCCN)C(=O)N[C@@H](CCCNC(=N)N)C(=O)NCCC[C@@H](CN)C(=O)N[C@@H](CCCNC(=N)N)C(=O)N[C@@H](CCC(N)=O)C(=O)N[C@@H](CCC(N)=O)C(N)=O)[C@@H](C)CC)[C@@H](C)CC)[C@@H](C)O)[C@@H](C)O)C(C)C)C(C)C,MIC,Pseudomonas aeruginosa,8 to 64 µg/mL
same,MIC50,Pseudomonas aeruginosa,32 µg/mL
same,MIC,Candida albicans,16 to 32 µg/mL
same,MIC50,Candida albicans,32 µg/mL
same,MIC,Staphylococcus aureus [1],16 to 64 µg/mL
same,MIC50,Staphylococcus aureus [1],32 µg/mL
same,MIC50,Staphylococcus aureus [2],32 µg/mL
same,MIC,Enterococcus,4 to 16 µg/mL
same,MIC50,Enterococcus,8 µg/mL
same,MIC,Acinetobacter baumannii [3],4 to 8 µg/mL
same,MIC50,Acinetobacter baumannii [3],6 µg/mL
same,MIC,Enterobacteriaceae,4 to 128 µg/mL
same,MIC50,Enterobacteriaceae,16 µg/mL
same,"viability at 24 h, 500 ug/ml",[4],90.7%
same,Activity,NHDF,Toxic
same,Activity,HaCaT,Toxic
same,HC50 at 1 h,[5],175 µg/mL
same,log(activity),Enterococcus faecalis [6],>5
same,log(activity),Enterococcus faecalis [7],>5
same,log(activity),Enterococcus faecalis [8],>5
same,Activity,Acinetobacter baumannii [9],Active
same,Activity,Escherichia coli [10],Active
same,Activity,Klebsiella pneumoniae,Active
same,Activity,Enterococcus faecalis [11],Active
same,Activity,Enterococcus faecalis [12],Active
same,Activity,Acinetobacter baumannii [13],Active
same,Activity,Escherichia coli [14],Active
same,Activity,Acinetobacter baumannii [15],Active
same,Ratio,Enterococcus faecalis [16],16
same,Activity,T-cell [17],Non-Toxic
same,Activity,T-cell [18],Non-Toxic
same,Activity,T-cell [19],Non-Toxic
same,Activity,T-cell [20],Non-Toxic
same,Stability,[21],Stable
same,remaining at 4 h,[22],87.9%
same,Activity,Oryctolagus cuniculus [23],90.9%
same,Activity,Oryctolagus cuniculus [24],75.4%
same,Activity,Oryctolagus cuniculus [25],63.6%
same,Activity,Oryctolagus cuniculus [26],50.1%
same,Activity,Oryctolagus cuniculus [27],42.9%
same,Activity,Oryctolagus cuniculus [28],30.2%
same,Activity,Oryctolagus cuniculus [29],12.6%
same,Activity,Oryctolagus cuniculus [30],5.2%
